Measurements taken from patent publication US9023762B2, “Plant growth regulator compositions, methods of preparation and use thereof” (Valent BioSciences Corporation, priority 2011, dated 2015).

What was measured:
[1] = system: Tomato (variety: Rutgers) plants; test: Tomato transpiration inhibition study (foliar application); assay type: in vivo; conditions: for Transpiration rate (% of control) Average of 3 days after treatment: foliarly applied to tomato leaves; for S-(+)-Abscisic acid doses to achieve 50% inhibition of transpiration / S-(+)-Abscisic acid dose to achieve 50% inhibition of transpiration: foliar, first 3 days after treatment; for S-(+)-Abscisic acid dose to achieve 50% inhibition of transpiration: log-linear regression; for Relative potency: transpiration inhibition
Description: Efficacy of the preferred composition of the present invention was studied with tomato plants to compare its transpiration inhibition effect against 10% potassium salt of S-(+)-Abscisic acid solution (ABA salt) and technical grade active ingredient of the free acid (S-(+)-Abscisic acid). Tomato (variety: Rutgers) seeds were sown in an 18-cell flat filled with Promix PGX (available from Premier Horticulture Inc. Quakertown, Pa.) for four weeks for germination and initial growth. Plants were then transplanted into pots (18 cm in diameter and 18 cm in height) filled with Promix BX (available from Premier Horticulture Inc. Quakertown, Pa.) and grown for another 5 days before treatment. During growing periods, plants received daily irrigation and weekly fertilizer (1 g/L all purpose fertilizer 20-20-20, The Scotts Company, Marysville, Ohio). S-(+)-Abscisic acid solutions of different, formulations were foliar applied to tomato plant leaves at the rate of 24 mL/6 plants. Plants were then placed in a transparent chamber with humidity controlled at relative humidity 40 to 60%. Leaf transpiration rate was measured 1, 2, 3 or 4 and 7 days after treatment using an AP4 Leaf Porometer (Dynamax, Inc., Houston, Tex.). The transpiration rate of each treatment was calculated as the percentage of that of control at each day to reduce day-to-day variation caused by changes of environmental condition such as light intensity and temperature. The log-linear regression between S-(+)-Abscisic acid doses and the average transpiration rates of first 3 days after treatment was used for calculation of S-(+)-Abscisic acid dose to achieve 50% inhibition of transpiration.

Pansy plants = test: Pansy shelf life extension study (sprench application); assay type: in vivo; conditions: for Days of extended shelf life / S-(+)-Abscisic acid dose (mg) to extend 1 day of shelf life / S-(+)-Abscisic acid dose (mg) to extend 2 days of shelf life: drench and foliar applied; for S-(+)-Abscisic acid dose to extend 1 day shelf life: drench/foliar applied; for S-(+)-Abscisic acid dose (mg) to extend 1 day of shelf life / S-(+)-Abscisic acid dose (mg) to extend 2 days of shelf life: log-linear regression
Description: Efficacy of the preferred composition of the present invention was also studied with Pansy plants to compare its shelf life extension effect against 10% potassium salt of S-(+)-Abscisic acid solution (ABA salt) and technical grade active ingredient of the free acid (S-(+)-Abscisic acid).
Pansy plants were obtained from local retailers as mature plants. Pansy plants were then transplanted into an 18-cell flat filled with Promix BX (available from Premier Horticulture Inc. Quakertown, Pa.) and grown for 3 days prior to treatment.
Uniform plants were selected for the study. Prior to S-(+)-Abscisic acid treatment, plants were saturated with water and then drained for about two hours. A total of 20 mL S-(+)-Abscisic acid solution, which is equivalent to about 10% of the cell volume, was applied to each plant by soil drench/foliar spray application. In the ornamental industry, this method of chemical application is commonly known as a sprench application. In this study, 17 mL solution was drench applied to root zone and 3 mL solution was foliar applied to canopy. Plants were not watered following the S-(+)-Abscisic acid treatment.
After the S-(+)-Abscisic acid treatment, plants were arranged in a randomized complete block experimental design. The plants were rated daily for the extent of wilting on a scale from 1 for no wilting to 4 for complete wilting. A rating of 2.5 was the point at which a plant was determined to be unmarketable and the previous day was recorded as the shelf life of that plant in days. The log-linear regression between S-(+)-Abscisic acid doses and the extension of shelf life over control plants was used for calculation of S-(+)-Abscisic acid dose to extend 1 day or 2 days of shelf life.

[2] = cited from earlier work
canola seed = test: Canola emergence after seed treatment (S-ABA as ammonium salt solution, 6-benzyladenine technical powder); assay type: in vivo; conditions: for Final emergence (%) / Qrange / T50: 6-BA 0 g/cwt
Procedure: In this example, the effect of the cytokinin 6-benzyladenine on S-(+)-Abscisic acid induced germination delay on Canola was studied. The experiment was set up as an S-(+)-Abscisic acid-dose×BA-dose factorial experiment, with four doses of S-(+)-Abscisic acid (0, 25, 50, and 100 g/cwt) and four doses of 6-benzyladenine (0, 1, 5 and 25 g/cwt) for a total of 16 treatment combinations. The treatments were made up in 1 ml samples of experimental aqueous seed treatment slurry. S-(+)-Abscisic acid was added in the form of a water solution of the ammonium salt. 6-Benzyladenine was added as technical powder. Ten μl Tween® 20 were added to each sample to help wet and suspend the 6-benzyladenine powder. All of the seed treatment slurry samples contained CP-Clear film-forming agent and Color Coat Red (available from Becker Underwood), each at 1 oz/cwt, and 0.167 oz/cwt Maxim XL fungicide (available from Syngenta). The slurry application volume was 40 oz/cwt (cwt means per 100 lbs or 45.4 kgs of seed). Ten gram samples of canola seed were treated with the experimental slurries using a Hege 11 seed treater with a six-inch bowl.
The seed was planted in plastic boxes containing 1 kg of typical agricultural slit loam. One hundred seeds were planted 2 cm deep in each plastic box, and the soil in the box was adjusted to 21% soil moisture (wet-weight basis). Two replications of the experiment were incubated under constant light in a 10° C. chamber. The soil temperature averaged 12.6° C. The boxes were watered up to the correct weight every 1-2 days, and checked for emergence. Counts of seedlings were continued until it became clear that emergence had ceased (28 days). The final count of emerged seedlings was expressed as a percentage of the 100 seeds planted.
The daily counts were converted to proportions of the final emergence of the box, and a Gompertz curve was fitted to the data from each box using SAS Proc NLIN. From the parameters of the model, median emergence time (T50) and quartile range (Qrange) were estimated for each box. Analysis of variance was performed and means calculated for each of the three responses (Final emergence, T50, Qrange).

[3] = relative to S-(+)-Abscisic acid salt = 1
[4] = relative to S-(+)-Abscisic acid = 1

| SMILES | Transpiration rate (% of control) Average of 3 days after treatment ([1]; ABA dose 1 mg) | Transpiration rate (% of control) Average of 3 days after treatment ([1]; ABA dose 3 mg) | Transpiration rate (% of control) Average of 3 days after treatment ([1]; ABA dose 10 mg) | S-(+)-Abscisic acid doses to achieve 50% inhibition of transpiration [1] [mg/plant] | S-(+)-Abscisic acid dose to achieve 50% inhibition of transpiration [1] [mg] | Days of extended shelf life (Pansy plants; ABA dose 1 mg) [days] | Days of extended shelf life (Pansy plants; ABA dose 3 mg) [days] | Days of extended shelf life (Pansy plants; ABA dose 10 mg) [days] | Days of extended shelf life (Pansy plants; ABA dose 30 mg) [days] | S-(+)-Abscisic acid dose to extend 1 day shelf life (Pansy plants) [mg/plant] | S-(+)-Abscisic acid dose (mg) to extend 1 day of shelf life (Pansy plants) [mg] | S-(+)-Abscisic acid dose (mg) to extend 2 days of shelf life (Pansy plants) [mg] | other results |
| --- | --- | --- | --- | --- | --- | --- | --- | --- | --- | --- | --- | --- | --- |
| CC1=CC(=O)CC(C)(C)[C@@]1(O)/C=C/C(C)=C\C(=O)[O-].[K+] [S-(+)-Abscisic acid salt] | 70 % of control | 60 % of control | 50 % of control | 10.13 | 10.13 | 0.50 | 1.17 | 1.50 | 1.83 | 2.83 | 2.83 | 39.83 | Relative potency [1, 3]: 1; Relative potency (1 day) (Pansy plants; [3]): 1; Relative potency (2 days) (Pansy plants; [3]): 1 |
| CC1=CC(=O)CC(C)(C)[C@@]1(O)/C=C/C(C)=C\C(=O)O [S-(+)-Abscisic acid] | 73 % of control | 63 % of control | 54 % of control | 15.02 | 15.02 | 0 | 0.67 | 0.83 | 1.67 | 8.68 | 8.68 | 79.62 | Relative potency [1, 4]: 1; Relative potency (2 days) (Pansy plants; [4]): 1; highest concentration that can be achieved in pure water ([2]; pure water at room temperature): about 3000 ppm; solubility limit in the tank-mix ([2]; tank-mix): up to 3000 ppm; final emergence in words (canola seed; S-(+)-Abscisic acid dose of 100 g/cwt): roughly cut in half; Final emergence (%) (canola seed; S-ABA 25 g/cwt): 92.3%; Qrange (canola seed; S-ABA 25 g/cwt): 3.26 days; T50 (canola seed; S-ABA 25 g/cwt): 9.15 days; Final emergence (%) (canola seed; S-ABA 50 g/cwt): 68.9%; Qrange (canola seed; S-ABA 50 g/cwt): 4.27 days; T50 (canola seed; S-ABA 50 g/cwt): 11.20 days; Final emergence (%) (canola seed; S-ABA 100 g/cwt): 53.5%; Qrange (canola seed; S-ABA 100 g/cwt): 4.27 days; T50 (canola seed; S-ABA 100 g/cwt): 12.74 days |
